From the supplement of paper PMC10733146

What was measured:
Assay in all cases: viability relative to DMSO control (fraction); higher = less drug effect (more viable cells)
Conditions in all cases: 48 h
[1] = tested on: primary AML patient cells (S017)
Method in brief: (§1)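 Viability was quantified by CellTiter-Glo luminescence and related to the median of 16 inner DMSO wells. Before that, primary mononuclear tumour cells, fresh or cryopreserved and Ficoll-isolated from blood or bone marrow or prepared from processed lymph node, were plated at 4 × 10^4 cells per well in 384-well plates containing pre-plated compounds at five concentrations, one well each. Plates were incubated in RPMI-1640 with penicillin/streptomycin, L-glutamine and human serum at 37 °C and 5% CO2 for 48 h.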

[2] = tested on: primary AML patient cells (S012)
Method in brief: as §1

[3] = tested on: primary AML patient cells (S085)
Method in brief: as §1

[4] = tested on: primary AML patient cells (S021)
Method in brief: as §1

[5] = tested on: primary MCL patient cells (S053)
Method in brief: as §1

[6] = tested on: primary FL patient cells (S022)
Method in brief: as §1

[7] = tested on: primary AML patient cells (S091)
Method in brief: as §1

[8] = tested on: primary T-PLL patient cells (S008)
Method in brief: as §1

[9] = tested on: primary MCL patient cells (S068)
Method in brief: as §1

[10] = tested on: primary AML patient cells (S002)
Method in brief: as §1

[11] = tested on: primary BL patient cells (S005)
Method in brief: as §1

[12] = tested on: primary AML patient cells (S037)
Method in brief: as §1

[13] = tested on: primary B-PLL patient cells (S016)
Method in brief: as §1

[14] = tested on: primary AML patient cells (S009)
Method in brief: as §1

[15] = tested on: primary FL patient cells (S087)
Method in brief: as §1

[16] = tested on: primary AML patient cells (S081)
Method in brief: as §1

[17] = tested on: primary AML patient cells (S025)
Method in brief: as §1

[18] = tested on: primary AML patient cells (S011)
Method in brief: as §1

[19] = tested on: primary AML patient cells (S019)
Method in brief: as §1

[20] = tested on: primary MCL patient cells (S041)
Method in brief: as §1

COc1cccc2c1C(=O)c1c(O)c3c(c(O)c1C2=O)C[C@@](O)(C(=O)CO)C[C@@H]3O[C@H]1C[C@H](N)[C@H](O)[C@H](C)O1 [Doxorubicin]
viability ([1]; 0.0016 µM): 1.2 | viability ([1]; 0.008 µM): 1.1 | viability ([1]; 0.04 µM): 1.07 | viability ([1]; 0.2 µM): 0.96 | viability ([1]; 1 µM): 0.146 | viability ([2]; 0.0016 µM): 1.04 | viability ([2]; 0.008 µM): 1.04 | viability ([2]; 0.04 µM): 0.88 | viability ([2]; 0.2 µM): 0.896 | viability ([2]; 1 µM): 0.0673 | viability ([3]; 0.0016 µM): 0.94 | viability ([3]; 0.008 µM): 1.09 | viability ([3]; 0.04 µM): 0.834 | viability ([3]; 0.2 µM): 0.278 | viability ([3]; 1 µM): 0.0284 | viability ([4]; 0.0016 µM): 0.994 | viability ([4]; 0.008 µM): 1.01 | viability ([4]; 0.04 µM): 0.929 | viability ([4]; 0.2 µM): 0.438 | viability ([4]; 1 µM): 0.182 | viability ([5]; 0.0016 µM): 0.959 | viability ([5]; 0.008 µM): 0.756 | viability ([5]; 0.04 µM): 0.448 | viability ([5]; 0.2 µM): 0.216 | viability ([5]; 1 µM): 0.299 | viability ([6]; 0.0016 µM): 1.12 | viability ([6]; 0.008 µM): 1.17 | viability ([6]; 0.04 µM): 0.892 | viability ([6]; 0.2 µM): 0.281 | viability ([6]; 1 µM): 0.183 | viability ([7]; 0.0016 µM): 0.983 | viability ([7]; 0.008 µM): 0.905 | viability ([7]; 0.04 µM): 0.737 | viability ([7]; 0.2 µM): 0.637 | viability ([7]; 1 µM): 0.499 | viability ([8]; 0.0016 µM): 1.04 | viability ([8]; 0.008 µM): 1.15 | viability ([8]; 0.04 µM): 0.972 | viability ([8]; 0.2 µM): 0.958 | viability ([8]; 1 µM): 0.607 | viability ([9]; 0.0016 µM): 0.995 | viability ([9]; 0.008 µM): 0.978 | viability ([9]; 0.04 µM): 0.761 | viability ([9]; 0.2 µM): 0.307 | viability ([9]; 1 µM): 0.0522 | viability ([10]; 0.0016 µM): 1.06 | viability ([10]; 0.008 µM): 1.08 | viability ([10]; 0.04 µM): 0.695 | viability ([10]; 0.2 µM): 0.401 | viability ([10]; 1 µM): 0.33 | viability ([11]; 0.0016 µM): 1.03 | viability ([11]; 0.008 µM): 1.03 | viability ([11]; 0.04 µM): 0.968 | viability ([11]; 0.2 µM): 0.875 | viability ([11]; 1 µM): 0.838 | viability ([12]; 0.0016 µM): 1.06 | viability ([12]; 0.008 µM): 1.05 | viability ([12]; 0.04 µM): 0.979 | viability ([12]; 0.2 µM): 0.737 | viability ([12]; 1 µM): 0.447 | viability ([13]; 0.0016 µM): 1.09 | viability ([13]; 0.008 µM): 0.847 | viability ([13]; 0.04 µM): 0.175 | viability ([13]; 0.2 µM): 0.0427 | viability ([13]; 1 µM): 0.0239 | viability ([14]; 0.0016 µM): 1.07 | viability ([14]; 0.008 µM): 0.994 | viability ([14]; 0.04 µM): 0.934 | viability ([14]; 0.2 µM): 0.644 | viability ([14]; 1 µM): 0.221 | viability ([15]; 0.0016 µM): 1.04 | viability ([15]; 0.008 µM): 1.03 | viability ([15]; 0.04 µM): 0.98 | viability ([15]; 0.2 µM): 0.776 | viability ([15]; 1 µM): 0.584 | viability ([16]; 0.0016 µM): 1.05 | viability ([16]; 0.008 µM): 1.09 | viability ([16]; 0.04 µM): 1.12 | viability ([16]; 0.2 µM): 1.18 | viability ([16]; 1 µM): 0.0358 | viability ([17]; 0.0016 µM): 0.99 | viability ([17]; 0.008 µM): 1.01 | viability ([17]; 0.04 µM): 0.848 | viability ([17]; 0.2 µM): 0.501 | viability ([17]; 1 µM): 0.119 | viability ([18]; 0.0016 µM): 1.05 | viability ([18]; 0.008 µM): 1.04 | viability ([18]; 0.04 µM): 0.973 | viability ([18]; 0.2 µM): 0.507 | viability ([18]; 1 µM): 0.0215 | viability ([19]; 0.0016 µM): 1.02 | viability ([19]; 0.008 µM): 1.06 | viability ([19]; 0.04 µM): 0.828 | viability ([19]; 0.2 µM): 0.481 | viability ([19]; 1 µM): 0.219 | viability ([20]; 0.0016 µM): 0.994 | viability ([20]; 0.008 µM): 1 | viability ([20]; 0.04 µM): 0.942 | viability ([20]; 0.2 µM): 0.488 | viability ([20]; 1 µM): 0.0259
